The text below walks through data of patent US9216955B2, “Polymorphic form of Fexofenadine hydrochloride, intermediates and process for its preparation” ([…] S.R.L., priority 2010, dated 2015).

The conditions of this data set: solid form.

For `CC(C)(C(=O)O)c1ccc(C(O)CCCN2CCC(C(O)(c3ccccc3)c3ccccc3)CC2)cc1.Cl` (centres unmarked) [polymorph φ, 2-[4-[1-hydroxy-4-[4-(hydroxydiphenylmethyl)-1-piperidyl]-butyl]phenyl]-2-methylpropanoic acid], the deliquescence entry was “not deliquescent” and the hygroscopicity entry is on record as “not hygroscopic”.
